Source: a melting point compilation (Tetko et al.; mined from patent text by program, amines drawn as free bases though some values may be those of a salt)

Molecule `CCOCc1nc2c(N)nc3cc(-c4cccnc4)ccc3c2n1Cc1ccc(CNS(C)(=O)=O)cc1` has a melting point of 228 to 229 °C.
`CC1(C)Nc2ccccc2-n2cnc(-c3nc(C4CC4)no3)c21` gave a melting point of 175 to 179 °C.
For `CCCCOc1c(CNC(=O)OC(C)(C)C)n(CC(C)C)c(=O)c2ccc(-c3nc(C(=O)O)cs3)cc12`, the melting point was 195 to 196 °C.
`Cc1[nH]cc2c(=O)n(-c3ccc(Cl)cc3)nc-2c1-c1cccc(NS(C)(=O)=O)c1` gave a melting point of 332 to 341 °C.
`CCc1ccc(C#CC(C)N(O)C(N)=O)cc1` (stereo not drawn) gave a melting point of 142 to 144 °C.
In the case of `Cc1nc(NC(=O)c2cnn3c(C(F)F)cc(-c4ccc(C(F)(F)F)cc4)nc23)sc1S(=O)(=O)NCCO`, the melting point is reported as 134 °C.
`COC1=C(OC)C(=O)C(CCCCCCCCCC(=O)O)=C(C)C1=O` gave a melting point of 59 to 60 °C.
With `CC(=O)Nc1n[nH]c2cc(Cl)ccc12` the melting point was 240 °C.
Molecule `COc1ccc(Oc2cccc(Oc3ccc4c(c3)OCO4)c2C(=O)O)cc1` has a melting point of 163 to 165 °C.
For `CCNn1cc(C(=O)O)c(=O)c2cc3c(cc21)OCO3`, the melting point was 242 °C.
With `NC1CC(N)(C(=O)O)C2C(C(=O)O)C12` (stereo not drawn) the melting point was > 275 °C.
Molecule `C=C(CO)[C@H](C(=O)OC(c1ccccc1)c1ccccc1)N1C(=O)[C@@H]2N=C(c3ccccc3)O[C@@H]21` has a melting point of 100 to 104 °C.
`COC(=O)C(Cc1ccc(-c2cccc(CNCC(=O)c3ccccc3)c2)cc1)Nc1ccccc1C(=O)c1ccccc1` (stereo not drawn) showed a melting point of 75 °C.
With `COc1ccc(-c2cc(C(=O)C(F)(F)F)[nH]c2-c2ccc(OC)cc2)cc1` the melting point was 185 to 186 °C.
With `CCOC(=O)C1[C@@H]2[C@@H](O)[C@@H]3O[C@H](c4ccc(F)cc4F)OC[C@H]3O[C@H]12` (stereo partly drawn) the melting point was 130 to 133 °C.
Work on `CC(C)C[C@H](NC(=O)OCCC1c2ccccc2-c2ccccc21)C(=O)O` yielded a melting point of 42 to 43 °C.
With `O=C(Nc1ccc(C2=CCN(Cc3ccccc3)CC2)cc1)c1ccccc1-c1ccccc1` the melting point was 142 °C.
`CC(C)C[C@H](NC(=O)Nc1cccc2ccccc12)C(=O)NC1CCOC1O` (stereo partly drawn) gave a melting point of 177 to 178 °C.
With `Cc1ccnc2c1C(=O)c1ccccc1-2` the melting point was 130 to 131 °C.
In the case of `O=C(O)CCC(=O)OCc1ccc(-c2nn(Cc3ccccc3)c3cc(F)ccc23)o1`, the melting point is reported as 120 to 122 °C.
Molecule `CSc1nnc(-c2ccc(F)cc2)c(-c2ccc(F)cc2)n1` has a melting point of 132 to 135 °C.
`CC(C)(C)c1cc(CCc2n[nH]c(=O)o2)cc(C(C)(C)C)c1O` gave a melting point of 120 to 123 °C.
In the case of `COc1nc(C(F)(F)C(F)(F)F)cc(=O)n1-c1cc(OC(C)C)c(Cl)cc1F`, the melting point is reported as 79 to 81 °C.
`NC(=O)c1ccc(Nc2ccncc2)cc1` showed a melting point of 223 to 226 °C.
Work on `CCCCc1oc2ccccc2c1-c1ncc(-c2ccc3c(Br)c(OCc4ccc(C(=O)OC)cc4)ccc3c2)o1` yielded a melting point of 143 to 145 °C.
Molecule `CC(C)Oc1cc([N+](=O)[O-])ccc1-n1cccc1` has a melting point of 59 to 61 °C.
`C[C@H](NC(=O)CS)C(=O)N1CCC[C@H]1C(=O)O` showed a melting point of 152 to 155 °C.
Molecule `Cc1nc(NCc2ccccc2)[nH]c(=O)c1CCO` has a melting point of 187 °C.
For `CCCCC(C)C(C=Cc1ccc(OCc2ccccc2)c(OCc2ccccc2)c1)OC` (stereo not drawn), the melting point was 36 to 38 °C.
For `NC(=O)N(Cc1ccc(C(F)(F)F)c(N2CCCCC2)c1)c1cccc2c1CC(O)CC2` (stereo not drawn), the melting point was 163 °C.
Work on `COc1cc2c(=O)cc3c4ccccc4sn3c2c(OC)c1OC` yielded a melting point of 196 °C.
In the case of `Cc1c(Br)ccc(OC(=O)C(C)(C)C)c1C(=O)O`, the melting point is reported as 144 to 145 °C.
`COc1cccc(C(=O)c2ccc(F)cc2F)c1` gave a melting point of 50 to 52 °C.
With `COc1ccc(C(=O)N2c3ccccc3C(N3CCc4ccccc4C3)CC2C)cc1OC` (stereo not drawn) the melting point was 128 to 129 °C.
`CCOC(=O)C1(C(=O)OCC)SCC(N(C)C)CS1` gave a melting point of 38 to 39 °C.
`C#CCOC(=O)c1ccc(O)c(O)c1` gave a melting point of 127 to 129 °C.
`COc1ccc2c(c1)CCn1ncnc1C2=C1CCN(C)CC1` showed a melting point of 166 °C.
`CC(C)(C)OC(=O)NC(Cc1ccccc1)C(O)CNCC(O)C(Cc1ccccc1)NC(=O)OC1c2ccccc2CC1O` (stereo not drawn) gave a melting point of 131 to 133 °C.
Molecule `O=C(O)[C@H](CC1CCCCC1)n1cccc1` has a melting point of 78 to 80 °C.
In the case of `CCCn1c(=O)[nH]c(=O)c2nc(-c3ccc(/C=C/C(=O)O)cc3)[nH]c21`, the melting point is reported as > 300 °C.
For `NC(=O)c1ccc(N2CCN(CCC3CCc4ccccc43)CC2)cc1` (stereo not drawn), the melting point was 204 to 205 °C.
Molecule `COc1ccc(-c2nc3cc4c(cc3[nH]2)NC(=O)C4C(C)C)cc1` (stereo not drawn) has a melting point of 326 to 328 °C.
`CC(NC(=S)NCC(COC(=O)C(C)(C)C)Cc1ccccc1)c1ccc(NS(C)(=O)=O)cc1` (stereo not drawn) gave a melting point of 58 to 62 °C.
Work on `Oc1ccc2c(c1)CN(C1CC1)C2` yielded a melting point of 170 °C.
For `COC1=C(C)C(C)(F)C(C(=O)c2ccccc2)C=C1` (stereo not drawn), the melting point was 59 to 61 °C.
With `CS(=O)(=O)c1ccc(/C(=C\C2CCCCCC2)C(=O)O)cc1` the melting point was 164 to 166 °C.
Work on `CC(C)Nc1ncc2ccc(=O)n(C)c2n1` yielded a melting point of 148 to 149 °C.
With `COc1cccc([C@H]2O[C@H](CC(=O)Nc3cc(CCCCC(=O)O)ccc3F)C(=O)N(CC(C)(C)CO)c3ccc(Cl)cc32)c1OC` the melting point was 115 to 118 °C.
With `CON(C)C(=O)c1c(-c2ccc(Cl)cc2)nsc1-c1ccccc1` the melting point was 119 to 120 °C.
In the case of `CCOC(=O)C1=Cc2cc(S(=O)(=O)Cl)ccc2OC1C(F)(F)F` (stereo not drawn), the melting point is reported as 97.2 to 98.4 °C.
Work on `CCOC(=O)C(=O)Cc1ccc(C#N)cc1[N+](=O)[O-]` yielded a melting point of 118 °C.
Molecule `CCOC(=O)c1ccc(-n2cnnc2)cc1` has a melting point of 209 to 211 °C.
`CC1(c2ccccc2)C(=O)Nc2cc(Cl)cc(Cl)c2C1=O` (stereo not drawn) gave a melting point of 222 to 225 °C.
With `CCC[C@H](NC(=O)Cc1cc(F)cc(F)c1)C(=O)Nc1ncc(-c2ccc(OC)cc2COC(C)C)s1` the melting point was 73.9 °C.
`CC(=O)OCC(=O)Nc1cccc(N2CCOCC2)c1C#N` gave a melting point of 131 to 132 °C.
For `N#Cc1cc(C(F)(F)F)nn1-c1ccc(NC(=O)c2ccncc2F)cc1`, the melting point was 161 to 162 °C.
Molecule `CCOC(=O)c1cnc2onc(C)c2c1N(CS(=O)(=O)c1ccc(OC)cc1)c1cccnc1` has a melting point of 128 to 130 °C.
Molecule `CCC1(C)CCCC(C)(C)N1OC(C)(C)C#N` (stereo not drawn) has a melting point of 41 to 52 °C.
Work on `COc1c(NC(=O)CC(C)(C)C)c(C)c(C)c2c1C(c1ccc(C(C)C)cc1)CO2` (stereo not drawn) yielded a melting point of 161 to 162 °C.
In the case of `Cc1cc(N)n(C)c2nc(N)nc(=O)c1-2`, the melting point is reported as > 300 °C.
Work on `CC(n1ncnn1)C(O)(c1ccc(OC(F)(F)F)cc1)c1ccc(OC(F)(F)F)cc1` (stereo not drawn) yielded a melting point of 55 to 58 °C.
`CC(C)(C)c1ccc(C=C(SC(=Cc2ccc(C(C)(C)C)cc2)S(=O)(=O)c2ccccc2)S(=O)(=O)c2ccccc2)cc1` showed a melting point of 57 to 58 °C.
For `O=C1Nc2ccccc2C12COc1cc3c(cc12)CCCC3` (stereo not drawn), the melting point was > 230 °C.
`COCOC(c1cc(CBr)ccc1I)(C(F)(F)F)C(F)(F)F` gave a melting point of 93 °C.
`COc1ccc(CNc2nc[nH]n2)cc1OC1CCCC1` showed a melting point of 203 to 204 °C.
`CC1c2onc(-c3ccc(Cl)cc3)c2CCC1(C)C(=O)O` (stereo not drawn) gave a melting point of 165 to 170 °C.
In the case of `CC(C)[C@H](NC(=O)[C@H](Cc1ccccc1)NC(=O)OCc1ccccc1)[C@@H](O)c1c(-c2ccccc2)c1=O`, the melting point is reported as 175 to 177 °C.
`CC(O)Cn1cc(C2=C(c3cn(CC(C)O)c4ccccc34)C(=O)NC2=O)c2ccccc21` (stereo not drawn) showed a melting point of 133 to 135 °C.
`Cc1cccc(NC(=O)NC2N=C(c3ccccc3)c3ccccc3N(Cc3nccc4ccccc34)C2=O)c1` (racemic) gave a melting point of 218 to 221 °C.
In the case of `Cc1ccc(S(=O)(=O)OCCCCCn2c3c(c4ccccc4c2=O)C(=O)c2ccccc2-3)cc1`, the melting point is reported as 163 to 165 °C.
With `CCOC(Cc1ccc(OCCN2c3ccccc3Sc3ccccc32)cc1)C(=O)O` (stereo not drawn) the melting point was 106 to 113 °C.
Molecule `O=C(CSCCCOc1ccccc1)NNC(=O)c1ccc(O)cc1` has a melting point of 146 to 151 °C.
Work on `CCOC(=O)CN(C)C(=S)CCc1nc2c(F)c(F)cc(F)c2s1` yielded a melting point of 83 to 85 °C.
In the case of `CCCCN(CC)CC1CCCCN1CCNC(=O)N1c2ccccc2C(=O)Nc2cccnc21` (stereo not drawn), the melting point is reported as 156 to 157 °C.
`CC1(C)Oc2c(c(Cl)cc(Cl)c2-n2c(=O)cc(C(F)(F)F)[nH]c2=O)C1=O` showed a melting point of 308 to 320 °C.
`O=C(c1cccs1)C(O)c1ccc(F)cc1` (stereo not drawn) gave a melting point of 90 to 92 °C.
Work on `Cc1ccc2cc(-c3cccc4ccccc34)nc(N3CCN(C)CC3)c2c1` yielded a melting point of 150 °C.
For `Cc1cc(F)cc2c1-c1ccc(F)cc1C21NC(=O)NC1=O` (stereo not drawn), the melting point was > 320 °C.
Molecule `FC(F)(F)c1cc(-c2ccc(Cl)c(Cl)c2)nc2c(-c3ccccn3)cnn12` has a melting point of 188 °C.
With `CCOC1CC2(C)C(CCC3C4CCC(=O)C4(C)CC(N)C32)CC1O` (stereo not drawn) the melting point was 144 to 148 °C.
`Nc1cc(NC(=O)c2cc3cc(C(F)(F)F)ccc3n2Cc2cccc(F)c2)ccn1` showed a melting point of 225 to 226 °C.
Molecule `O=c1[nH]c2ccccc2c(=O)n1C1CCN(Cc2ccccc2)CC1` has a melting point of 223 °C.
Molecule `Cc1ccccc1NO` has a melting point of 38 to 39 °C.
For `COc1ccc(C(Cl)=NO)cc1`, the melting point was 87.5 to 89.5 °C.
With `Cc1ccc2c(c1)N=C(NCc1cccnc1)c1ccccc1N2` the melting point was 186 to 187 °C.
Molecule `S=C(NCC1CCCCC1)NCC1CCCCC1` has a melting point of 124 to 125 °C.
Work on `CCOC(=O)c1cnc2n(c1=O)C(C)CCC2=NNc1ccc(Cl)cc1` (stereo not drawn) yielded a melting point of 177 to 178 °C.
`COC(=O)Cc1ccc(O)c(F)c1` showed a melting point of 32 to 34 °C.
`Cc1cccc(-c2ccc(NC(=O)OC(C)(C)C)c([N+](=O)[O-])c2)c1` gave a melting point of 83 to 85 °C.
In the case of `NNC(=O)N(NC(=O)CSC(=O)c1ccccc1)C(=O)CSC(=O)c1ccccc1`, the melting point is reported as 184 to 190 °C.
Molecule `COc1ccc(NC(=O)c2sccc2S(=O)(=O)Nc2onc(C)c2Br)cc1` has a melting point of 202 to 205 °C.
In the case of `C[C@H](c1ccc(F)cc1)N1CCN(c2cc(Oc3cccc4ncc(N)nc34)ncn2)CC1`, the melting point is reported as 118 °C.
For `COc1ccc(C#CCCCCCCC#CCO)cc1OC`, the melting point was 39 to 41 °C.
For `O=C(Nc1ccc(Oc2ccnc(NC3CCCC3)n2)c2ccccc12)c1cc(F)cc(N2CCOCC2)c1`, the melting point was 119 to 120 °C.
Work on `CN(C)S(=O)(=O)c1cc(-c2csc(=Nc3ccc(F)cc3)n2C)ccc1Cl` yielded a melting point of 144 to 145 °C.
`CCCC(=O)COS(=O)(=O)c1c(C)cc(C)cc1C` showed a melting point of 57.5 to 58.5 °C.
Work on `COc1nc2ccccn2c(=O)c1-c1ccc(Cl)cc1` yielded a melting point of 149 to 151 °C.
Molecule `Clc1ccccc1C(Cl)(c1ccccc1)c1ccccc1` has a melting point of 131 °C.
